In ChEMBL document CHEMBL1123411, “Ribose-modified adenosine analogues as adenosine receptor agonists” (J Med Chem, 1986):
pKi: −log10 of the molar value.

Experiments:
[1] = biological target: T1, Adenosine receptor A1 (Rattus norvegicus, UniProt P25099); experiment: Binding affinity for adenosine A1 receptor in rat brain membranes using [3H]CHA as radioligand; type: cell membranes
T1 sequence (P25099 whole entry): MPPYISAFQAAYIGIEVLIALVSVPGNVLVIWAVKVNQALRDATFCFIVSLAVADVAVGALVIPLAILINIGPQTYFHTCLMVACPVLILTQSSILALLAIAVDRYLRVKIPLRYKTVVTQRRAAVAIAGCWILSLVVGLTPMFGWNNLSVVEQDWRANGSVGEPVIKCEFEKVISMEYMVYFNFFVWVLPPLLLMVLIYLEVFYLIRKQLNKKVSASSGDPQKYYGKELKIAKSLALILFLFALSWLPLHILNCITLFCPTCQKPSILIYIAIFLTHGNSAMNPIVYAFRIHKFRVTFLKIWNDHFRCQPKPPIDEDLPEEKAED

[2] = species: Mus musculus; experiment: CNS activity measured using screen test failure; type: functional
[3] = species: Mus musculus; experiment: Dose required to inhibit mouse locomotor activity by 60%; type: functional
[4] = species: Rattus norvegicus; experiment: Cardiovascular activity (as 20% decrease in blood pressure).; type: functional
[5] = species: Rattus norvegicus; experiment: Cardiovascular activity (as 20% decrease in rate).; type: functional
[6] = biological target: Adenosine A2 receptor (Rattus norvegicus, UniProt P29276+P30543)
Description: Binding affinity for adenosine A2 receptor in rat striatal membranes using [3H]NECA as radioligand

[7] = species: Rattus norvegicus; experiment: Compound was evaluated for Cardiovascular activity (as 20% decrease in rate) in rats; type: functional; conditions: Heart

Structure (SMILES): C[C@H](Cc1ccccc1)Nc1ncnc2c1ncn2COCCO
- pKi [1]: 4.17
- LAD [2]: >30 mg/kg
- LAD [3]: >30 mg/kg

Structure (SMILES): C[C@H](Cc1ccccc1)Nc1ncnc2c1ncn2C(CO)OC(O)CO (stereo not given in full)
- pKi [1]: < 5.00
- LAD [2]: >100 mg/kg
- LAD [3]: >100 mg/kg
- ED20 [4]: 0.9 mg/kg
- ED20 [5]: > 10 mg/kg
- Ki [6]: > 10 µM

Structure (SMILES): C[C@H](Cc1ccccc1)Nc1[nH]cnc2ncnc1-2
- pKi [1]: 5.02
- LAD [2]: 100 mg/kg
- LAD [3]: 100 mg/kg
- ED20 [4]: 8 mg/kg
- ED20 [5]: > 10 mg/kg
- Ki [6]: 39 µM

Structure (SMILES): C[C@H](Cc1ccccc1)Nc1ncnc2c1ncn2C1CCCO1 (stereo not given in full)
- pKi [1]: 5.82
- LAD [2]: >100 mg/kg
- LAD [3]: >100 mg/kg
- ED20 [4]: > 3 mg/kg
- ED20 [5]: > 3 mg/kg
- Ki [6]: 8.2 µM

Structure (SMILES): C[C@H](Cc1ccccc1)Nc1ncnc2c1ncn2C[C@H](O)CO
- pKi [1]: < 5.00
- LAD [2]: >100 mg/kg
- LAD [3]: >100 mg/kg
- Ki [6]: > 10 µM

Structure (SMILES): C[C@H](Cc1ccccc1)Nc1ncnc2c1ncn2[C@@H]1O[C@@H](CO)[C@@H](O)[C@H]1O
- LAD [2]: >100 mg/kg
- LAD [3]: >100 mg/kg
- ED20 [4]: > 10 mg/kg
- ED20 [5]: > 10 mg/kg

Structure (SMILES): C[C@H](Cc1ccccc1)Nc1ncnc2c1ncn2[C@H]1C[C@H](O)[C@@H](CO)O1
- pKi [1]: 5.72
- LAD [2]: >30 mg/kg
- LAD [3]: >30 mg/kg

Structure (SMILES): C[C@H](Cc1ccccc1)Nc1ncnc2c1ncn2[C@@H]1O[C@H](CO)C[C@H]1O
- pKi [1]: 7.54
- LAD [2]: 100 mg/kg
- LAD [3]: 100 mg/kg
- ED20 [4]: 0.8 mg/kg
- ED20 [5]: 0.4 mg/kg
- Ki [6]: 6.9 µM

Structure (SMILES): C[C@H](Cc1ccccc1)Nc1ncnc2c1ncn2C[C@@H](O)CO
- pKi [1]: < 5.00
- LAD [2]: >100 mg/kg
- LAD [3]: >100 mg/kg
- ED20 [4]: > 10 mg/kg
- ED20 [5]: > 10 mg/kg
- Ki [6]: > 10 µM

Structure (SMILES): C[C@H](Cc1ccccc1)Nc1ncnc2c1ncn2C1CCCCO1 (stereo not given in full)
- pKi [1]: 5.92
- LAD [2]: >100 mg/kg
- LAD [3]: 100 mg/kg
- Ki [6]: 38 µM

Structure (SMILES): C[C@H](Cc1ccccc1)Nc1ncnc2c1ncn2C1CCCC(O)C1O (stereo not given in full)
- pKi [1]: 4.82
- LAD [2]: >100 mg/kg
- LAD [3]: >100 mg/kg
- ED20 [4]: > 3 mg/kg
- ED20 [5]: > 3 mg/kg
- Ki [6]: > 10 µM

Structure (SMILES): C[C@H](Cc1ccccc1)Nc1ncnc2c1ncn2C1OCC(O)C(O)C1O (stereo not given in full)
- pKi [1]: 5.24
- Ki [6]: > 100 µM

Structure (SMILES): C[C@H](Cc1ccccc1)Nc1ncnc2c1ncn2CC(O)C(O)C(O)CO (stereo not given in full)
- pKi [1]: < 5.66
- LAD [2]: >100 mg/kg
- LAD [3]: >100 mg/kg
- ED20 [4]: 10 mg/kg
- ED20 [5]: > 10 mg/kg
- Ki [6]: > 100 µM

Structure (SMILES): C[C@H](Cc1ccccc1)Nc1ncnc2c1ncn2C1O[C@H](C)[C@@H](O)[C@H]1O (stereo not given in full)
- pKi [1]: 7.60
- LAD [2]: 100 mg/kg
- LAD [3]: 30 mg/kg
- ED20 [4]: 0.05 mg/kg
- ED20 [5]: > 0.3 mg/kg
- Ki [6]: 3.3 µM

Structure (SMILES): C[C@H](Cc1ccccc1)Nc1ncnc2c1ncn2C1OC[C@](O)(CO)[C@H]1O (stereo not given in full)
- pKi [1]: < 5.00
- Ki [6]: > 50 µM

Structure (SMILES): CSC[C@H]1OC(n2cnc3c(N[C@H](C)Cc4ccccc4)ncnc32)[C@H](O)[C@@H]1O (stereo not given in full)
- pKi [1]: 7.54
- LAD [2]: >100 mg/kg
- LAD [3]: >100 mg/kg
- ED20 [4]: 0.023 mg/kg
- ED20 [5]: 3 mg/kg
- Ki [6]: 56 µM

Structure (SMILES): C[C@H](Cc1ccccc1)Nc1ncnc2c1ncn2C1O[C@H](CCl)[C@@H](O)[C@H]1O (stereo not given in full)
- pKi [1]: 8.80
- LAD [2]: 100 mg/kg
- LAD [3]: 10 mg/kg
- ED20 [4]: 0.1 mg/kg
- ED20 [5]: 0.08 mg/kg
- Ki [6]: 1.9 µM

Structure (SMILES): C[C@H](Cc1ccccc1)Nc1ncnc2c1ncn2[C@@H]1O[C@H](CO)[C@@H](O)[C@H]1O [(R)-PIA]
- LAD [2]: 3 mg/kg
- LAD [3]: 1 mg/kg
- ED20 [7]: 0.006 mg/kg
